In general, IC50 refers to the point on the concentration scale where inhibition reaches its midpoint.

The structures appear in SMILES notation.

In the test the test system is HCT-116. Put plainly: Cytotoxicity against human HCT116 cells. Type of test: functional, cell-based.
As to `COc1ccc(C2=C(c3ccccn3)C(=O)N3CCCC3C2)cc1` (stereo not drawn), the IC50 is 104000 nM.
On to `CSc1ccc(C2=C(c3ccoc3)C(=O)N3CCCC3C2)cc1` (stereo not drawn), for which inhibition was half-maximal at 1100 nM (IC50).
Compound `COc1ccc(C2=C(c3ccncc3)C(=O)N3CCCC3C2)cc1` (stereo not drawn) had a half-inhibitory concentration (IC50) of 19000 nM.
The figure for `COc1ccc(C2=C(c3ccco3)C(=O)N3CCCC3C2)cc1` (stereo not drawn) is 6000 nM.
Compound `COc1ccc(C2=C(c3ccoc3)C(=O)N3CCCC3C2)cc1` (stereo not drawn) yielded an IC50 of 3000 nM.
The figure for `CSc1ccc(C2=C(c3ccccc3)C(=O)N3CCCC3C2)cc1` (stereo not drawn) is 1000 nM; for `CSc1ccc(C2=C(c3ccncc3)C(=O)N3CCCC3C2)cc1` (stereo not drawn) it is 6000 nM; for `CSc1ccc(C2=C(c3ccsc3)C(=O)N3CCCC3C2)cc1` (stereo not drawn) it is 600 nM.
Then `CSc1ccc(C2=C(c3cccs3)C(=O)N3CCCC3C2)cc1` (stereo not drawn), with 270 nM; and `CSc1ccc(C2=C(c3ccco3)C(=O)N3CCCC3C2)cc1` (stereo not drawn), with 3000 nM.
Then `COc1ccc(C2=C(c3cccs3)C(=O)N3CCCC3C2)cc1` (stereo not drawn), with 5000 nM.
`COc1ccc(C2=C(c3ccsc3)C(=O)N3CCCC3C2)cc1` (stereo not drawn): half-maximal inhibition (IC50) required 1500 nM.
As to `COc1ccc(C2=C(c3cccnc3)C(=O)N3CCCC3C2)cc1` (stereo not drawn), the IC50 came out at 79000 nM.

For the origin of these results see ChEMBL document CHEMBL1150389, “Synthesis and evaluation of heteroaromatic 6,7-diaryl-2,3,8,8a-tetrahydroindolizin-5(1H)-ones for cytotoxicity against the HCT-116 colon cancer cell line” (Bioorg Med Chem Lett, 2008).
